According to patent US20100210536A1, “USE OF LEPTIN (22-56 ) AS A THERAPEUTIC AGENT” (priority 2007, published 2010):
Where no end group is shown, it is not given here.

Experiments:
MRC-5 cells = assay: Cytotoxicity in MRC-5 cells (CellTiter 96 cell viability); conditions: 6 days incubation
in vitro [1] = conditions: human
MRSA = conditions: 5 micrograms per ml
Pseudomonas aeruginosa = assay type: cell-based; conditions: 5 micrograms per ml
in vitro [2] = conditions: human, HepG2-2.2.15 cells
Streptococcus pneumoniae = assay type: cell-based; conditions: 5 micrograms per ml
in vitro [3] = conditions: human, MRC-5 cells

| Molecule | % Cell viability (MRC-5 cells) [%] | viability at 10 micrograms per ml (in vitro [1]) [%] | % inhibition (MRSA) [%] | % inhibition (Pseudomonas aeruginosa) [%] | viability at 144 h, 10 micrograms per ml (in vitro [2]) [%] | % inhibition (Streptococcus pneumoniae) [%] | viability at 144 h (in vitro [3]) [%] |
| --- | --- | --- | --- | --- | --- | --- | --- |
| Nc1nc(O)c2ncn(COC(CO)CO)c2n1 [Ganciclovir] | 100 |  |  |  |  |  |  |
| VPIQKVQDDTKTLIKTIVTRINDISHTQSVSSKQK-OH [Leptin (22-56)] |  | 93.5 | 0.0 | 0.0 | 100 | 0.0 | 100 |
